Paper PMC7961763, “Semi-Synthesis of Harringtonolide Derivatives and Their Antiproliferative Activity” (Molecules, 2021)
Entries after “also recorded” stand apart in the source; their conditions may differ. Read-outs that look alike come from different tables or passages of the source.

Legend:
[1] = tested on: HCT-116 (human colon cancer cell line); test: MTT assay, cytotoxicity against HCT-116; format: cell-based; conditions: read-out: IC50 HCT-116
Method: (§1) All the synthesized derivatives of HO were tested for their antiproliferative activity against four human cancer cell lines, including the HCT-116, A375, A-549, and Huh-7 cell lines, using the MTT assay. Cisplatin was used as a positive control, while lead compound HO (1) was also included in the study for comparison.
(§2) HCT-116 (Human colon cancer cell line), A375 (human melanoma cancer cell line), A-549 (human lung adenocarcinoma cell line), Huh-7 (human hepatoma cancer cell line), and L-02 (normal hepatic cell line) were purchased from the Cell Bank of Shanghai Institute of Biochemistry and Cell Biology, Chinese Academy of Sciences (Shanghai, China). The cells were cultured in Dulbecco’s modified Eagle medium (DMEM; NY, USA), which were all supplemented with 10% fetal bovine serum (FBS; NY, USA) at 37 °C with 5% CO2.
(§3) The cytotoxic activity was evaluated using the MTT assay. Briefly, cells were seeded in 96-well plates at a density of 5 × 10^3 cells/well in 100 μL of DMEM medium at 37 °C for 24 h. Stock solutions of test compounds were prepared in DMSO at concentration of 50 mM, and twofold serial dilution with a culture medium was performed to obtain appropriate concentrations right before the assay. After that, the cells were incubated with synthetic derivatives or cisplatin as a positive control at the various concentrations (0.78125-50 μM) for 48 h. Then, 20 μL of 3-(4,5-Dimethylthiazol-2-yl)-2,5-diphenyltetrazolium bromide (MTT, Aladdin, Shanghai, China) solution (5 mg/mL in PBS) was added, and then the cells were incubated at 37 °C for an additional 4 h. The supernatant was removed, and 150 μL of dimethyl sulfoxide was added to dissolve the MTT formazan. The optical density (OD) was measured on a microplate reader (SpectraMax Plus 384, Molecular Devices, Sunnyvale, CA, USA) at a wavelength of 570 nm. The cytotoxic activity was expressed as the IC50 values. The above tests were repeated three times in parallel. Vehicle DMSO (0.1%) was used as a negative control.

[2] = tested on: A375 (human melanoma cancer cell line); test: MTT assay, cytotoxicity against A375; format: cell-based; conditions: read-out: IC50 A375
Method: as §1, §2, §3

[3] = tested on: A-549 (human lung adenocarcinoma cell line); test: MTT assay, cytotoxicity against A549; format: cell-based; conditions: read-out: IC50 A549
Method: as §1, §2, §3

[4] = tested on: Huh-7 (human hepatoma cancer cell line); test: MTT assay, cytotoxicity against Huh-7; format: cell-based; conditions: read-out: IC50 Huh-7
Method: as §1, §2, §3

[5] = tested on: HCT-116, A375, A549, and Huh-7 cells; test: MTT assay, statements for the whole panel of tested cancer cells; format: cell-based, human; conditions: for cytotoxic activities against four tested cancer cells (result in words): HCT-116, A375, A549, Huh-7, tested up to 50 μM; for cytotoxic activities against three other cancer cell lines (result in words): cell lines other than A549; for IC50: Homo sapiens, all tested cancer cells (HCT-116, A375, A549, Huh-7), read-out: IC50 against tested cells
Method: as §1, §2, §3

[6] = Homo sapiens, HCT-116, 48 h, MTT, 48 h, HCT-116 cells
[7] = Homo sapiens, A-375, 48 h, MTT, 48 h, A375 cells
[8] = Homo sapiens, A549, 48 h, MTT, 48 h, A549 cells
[9] = Homo sapiens, Huh-7, 48 h, MTT, 48 h, Huh-7 cells

SMILES	IC50 [1, 6]	IC50 [2, 7]	IC50 [3, 8]	IC50 [4, 9]	cytotoxic activities against four tested cancer cells (result in words) [5]	other results
Cc1cc(=O)cc2c3c1C1OC4C5OC(O)C(CC2)(C4C)C3C15 [Compound 4, (1R,3R,4aR,10aS,11S)-1-hydroxy-5,11-dimethyl-2a,3,4a,9,10,10a1-hexahydro-1H-2,4-dioxa-3,10a-methanocyclohepta[bc]cyclopenta[jk]acenaphthylen-7(2a1H)-one]	> 50 µM	> 50 µM	> 50 µM	> 50 µM	losing of cytotoxic activities	–
Cc1cc(=O)cc2c3c1C1OC4C5OC(=O)C(CC2OC(=O)c2ccccn2)(C4C)C3C15 [Compound 11e, (3R,4aR,9S,10aS,11S)-5,11-dimethyl-1,7-dioxo-2a,2a1,3,4a,7,9,10,10a1-octahydro-1H-2,4-dioxa-3,10a-methanocyclohepta[bc]cyclopenta[jk]acenaphthylen-9-yl picolinate]	5.47 ± 0.27 µM	7.08 ± 0.42 µM	18 ± 4.18 µM	> 50 µM	–	cytotoxic activities against three other cancer cell lines (result in words) [5]: weak cytotoxic activities
COc1c2c3c(c(C)cc1=O)C1OC4C5OC(=O)C(CC2)(C4C)C3C15 [Compound 9, (3R,4aR,10aS,11S)-8-methoxy-5,11-dimethyl-2a,3,4a,9,10,10a1-hexahydro-1H-2,4-dioxa-3,10a-methanocyclohepta[bc]cyclopenta[jk]acenaphthylene-1,7(2a1H)-dione]	–	–	–	–	inactive; also recorded: losing of cytotoxic activities	IC50 ([1]; Homo sapiens, HCT-116, 48 h): > 50 µM; IC50 ([2]; Homo sapiens, A-375, 48 h): > 50 µM; IC50 ([3]; Homo sapiens, A549, 48 h): > 50 µM; IC50 ([4]; Homo sapiens, Huh-7, 48 h): > 50 µM
Cc1cc(=O)cc2c3c1C1OC4C5OC(=O)C(CC2=O)(C4C)C3C15 [Compound 13, (3R,4aR,10aS,11S)-5,11-dimethyl-2a,3,4a,10a1-tetrahydro-1H-2,4-dioxa-3,10a-methanocyclohepta[bc]cyclopenta[jk]acenaphthylene-1,7,9(2a1H,10H)-trione]	> 50 µM	> 50 µM	> 50 µM	> 50 µM	–	IC50 [5]: > 50 µM
CC(=O)OC1OC2C3OC4c5c(C)cc(=O)cc6c5C(C42)C1(CC6)C3C [Compound 5, (1S,3R,4aR,10aS,11S)-5,11-dimethyl-7-oxo-2a,2a1,3,4a,7,9,10,10a1-octahydro-1H-2,4-dioxa-3,10a-methanocyclohepta[bc]cyclopenta[jk]acenaphthylen-1-yl acetate]	> 50 µM	> 50 µM	> 50 µM	> 50 µM	losing of cytotoxic activities	–
Cc1cc(=O)c(N)c2c3c1C1OC4C5OC(=O)C(CC2)(C4C)C3C15 [Compound 2, (3R,4aR,10aS,11S)-8-amino-5,11-dimethyl-2a,3,4a,9,10,10a1-hexahydro-1H-2,4-dioxa-3,10a-methanocyclohepta[bc]cyclopenta[jk]acenaphthylene-1,7(2a1H)-dione]	> 50 µM	> 50 µM	> 50 µM	> 50 µM	losing of cytotoxic activities	–
Cc1cc(=O)cc2c3c1C1OC4C5OC(=O)C(CC2OC(=O)c2ccccc2)(C4C)C3C15 [Compound 11d, (3R,4aR,9S,10aS,11S)-5,11-dimethyl-1,7-dioxo-2a,2a1,3,4a,7,9,10,10a1-octahydro-1H-2,4-dioxa-3,10a-methanocyclohepta[bc]cyclopenta[jk]acenaphthylen-9-yl benzoate]	> 50 µM	> 50 µM	> 50 µM	> 50 µM	–	IC50 [5]: > 50 µM
Cc1cc(=O)cc2c3c1C1OC4C5OC(=O)C(CC2OC(=O)c2ccco2)(C4C)C3C15 (centres unmarked) [Compound 11c]	11 ± 0.34 µM	16.4 ± 1.92 µM	23.2 ± 0.67 µM	> 50 µM	–	cytotoxic activities against three other cancer cell lines (result in words) [5]: weak cytotoxic activities
N.N.[Cl][Pt][Cl] [Cisplatin, reference compound]	–	–	–	–	–	IC50 ([1]; MTT, 48 h, HCT-116 cells): 4.48 ± 0.18 µM; IC50 ([2]; MTT, 48 h, A375 cells): 4.04 ± 0.23 µM; IC50 ([3]; MTT, 48 h, A549 cells): 8.53 ± 0.98 µM; IC50 ([4]; MTT, 48 h, Huh-7 cells): 15.04 ± 0.15 µM
Cc1cc(=O)cc2c3c1C1OC4C5OC(=O)C(CC2OC(=O)CCC(=O)O)(C4C)C3C15 [Compound 11b, 4-(((3R,4aR,9S,10aS,11S)-5,11-dimethyl-1,7-dioxo-2a,2a1,3,4a,7,9,10,10a1-octahydro-1H-2,4-dioxa-3,10a-methanocyclohepta[bc]cyclopenta[jk]acenaphthylen-9-yl)oxy)-4-oxobutanoic acid]	> 50 µM	> 50 µM	> 50 µM	> 50 µM	–	IC50 [5]: > 50 µM
Cc1cc(=O)cc2c3c1C1OC4C5OC(=O)C(CC2OC(=O)c2nc(C)c(C)nc2C)(C4C)C3C15 [Compound 11f, (3R,4aR,9S,10aS,11S)-5,11-dimethyl-1,7-dioxo-2a,2a1,3,4a,7,9,10,10a1-octahydro-1H-2,4-dioxa-3,10a-methanocyclohepta[bc]cyclopenta[jk]acenaphthylen-9-yl 3,5,6-trimethylpyrazine-2-carboxylate]	10.8 ± 0.42 µM	18.6 ± 2.23 µM	25.9 ± 0.68 µM	> 50 µM	–	cytotoxic activities against three other cancer cell lines (result in words) [5]: weak cytotoxic activities
CC(=O)Nc1c2c3c(c(C)cc1=O)C1OC4C5OC(=O)C(CC2)(C4C)C3C15 [Compound 3, N-((3R,4aR,10aS,11S)-5,11-dimethyl-1,7-dioxo-2a,2a1,3,4a,7,9,10,10a1-octahydro-1H-2,4-dioxa-3,10a-methanocyclohepta[bc]cyclopenta[jk]acenaphthylen-8-yl) acetamide]	> 50 µM	> 50 µM	> 50 µM	> 50 µM	losing of cytotoxic activities	–
Cc1cc(=O)cc2c3c1C1OC4C5OC(=O)C(CC2O)(C4C)C3C15 [Compound 12, (3R,4aR,9R,10aS,11S)-9-hydroxy-5,11-dimethyl-2a,3,4a,9,10,10a1-hexahydro-1H-2,4-dioxa-3,10a-methanocyclohepta[bc]cyclopenta[jk]acenaphthylene-1,7(2a1H)-dione]	–	–	–	–	–	IC50 ([1]; MTT, 48 h, HCT-116 cells): 31.9 ± 0.69 µM; IC50 ([2]; MTT, 48 h, A375 cells): 40.4 ± 7.58 µM; IC50 ([3]; MTT, 48 h, A549 cells): 34.7 ± 1.94 µM; IC50 ([4]; MTT, 48 h, Huh-7 cells): > 50 µM
Cc1cc(=O)cc2c3c1C1OC4C5OC(=O)C(CC2Br)(C4C)C3C15 [Compound 8, (3R,4aR,9R,10aS,11S)-9-bromo-5,11-dimethyl-2a,3,4a,9,10,10a1-hexahydro-1H-2,4-dioxa-3,10a-methanocyclohepta[bc]cyclopenta[jk]acenaphthylene-1,7(2a1H)-dione]	2.19 ± 0.23 µM	3.4 ± 0.22 µM	43.4 ± 1.08 µM	30.8 ± 0.6 µM	–	–
Cc1ccc2c3c1C1OC4C5OC(=O)C(CC2=O)(C4C)C3C15 [Compound 7, (3R,4aR,9aS,10S)-5,10-dimethyl-2a,2a1,4a,9a1-tetrahydro-1H,3H-2,4-dioxa-3,9a-methanopentaleno [4,3,2,1-cdef]phenanthrene-1,8(9H)-dione]	> 50 µM	> 50 µM	> 50 µM	> 50 µM	inactive; also recorded: losing of cytotoxic activities	–
CC(=O)OC1CC23C(=O)OC4C(OC5c6c(C)cc(=O)cc1c6C2C54)C3C [Compound 11a, (3R,4aR,9S,10aS,11S)-5,11-dimethyl-1,7-dioxo-2a,2a1,3,4a,7,9,10,10a1-octahydro-1H-2,4-dioxa-3,10a-methanocyclohepta[bc]cyclopenta[jk]acenaphthylen-9-yl acetate]	5.95 ± 0.45 µM	30.1 ± 1.58 µM	27.5 ± 0.89 µM	> 50 µM	–	cytotoxic activities against three other cancer cell lines (result in words) [5]: weak cytotoxic activities
